Experiment [1] concerns PBMCs. The experiment in a line: LPS-induced TNFα/IL-8 release in PBMC cells. Format: cell-based. The conditions noted are these: Homo sapiens, LPS-stimulated PBMCs. A digest of the protocol:
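Cytokines (TNFα, IL-8) in supernatants were quantified by sandwich ELISA after a 24 h challenge with 1 ng/mL E. coli LPS at 37° C, 5% CO2. Healthy-donor PBMCs had been exposed to compound for 2 h beforehand. IC50 values were fitted from the concentration-response curves.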

Another experiment relates to d-U937 cells. The experiment in a line: LPS-induced TNFα/IL-8 release in d-U937 cells. It counts as cell-based. As to conditions: Homo sapiens, dU937, LPS-stimulated d-U937 cells. On the procedure: U937 cells, a human monocytic cell line, are differentiated to macrophage-type cells by incubation with phorbol myristate acetate (PMA; 100 ng/mL) for 48 to 72 hr. Cells are pre-incubated with final concentrations of test compound for 2 hr and are then stimulated with 0.1 μg/mL of LPS (from E. Coli: O111:B4, Sigma) for 4 hr. The supernatant is collected for determination of TNFα and IL-8 concentrations by sandwich ELISA (Duo-set, R&D systems). The inhibition of TNFα production is calculated as a percentage of that achieved by 10 μg/mL of BIRB796 at each concentration of test compound by comparison against vehicle control. The relative 50% effective concentration (REC50) is determined from the resultant concentration-response curve. The inhibition of IL-8 production is calculated at each concentration of test compound by comparison with vehicle control. The 50% inhibitory concentration (IC50) is determined from the resultant concentration-response curve.

The target of the next experiment is c-Src (Homo sapiens (Human), UniProt P12931). Briefly: c-Src enzyme inhibition (FRET, Z-LYTE). It counts as biochemical. On the procedure:
(§1) The enzyme inhibitory activities of compounds disclosed herein are determined by FRET using synthetic peptides labelled with both donor and acceptor fluorophores (Z-LYTE, Invitrogen Ltd., Paisley, UK).
(§2) The inhibitory activities of compounds of the invention against c-Src and Syk enzymes (Invitrogen), are evaluated in a similar fashion to that described hereinabove. The relevant enzyme (3000 ng/mL or 2000 ng/mL respectively, 2.5 μL) is incubated with the test compound (either 4 μg/mL, 0.4 μg/mL, 0.04 μg/mL, or 0.004 μg/mL, 2.5 μL each) for 2 hr at RT. The FRET peptides (8 μM. 2.5 μL), and appropriate ATP solutions (2.5 μL, 800 μM for c-Src, and 60 μM ATP for Syk) are then added to the enzymes/compound mixtures and incubated for 1 hr. Development reagent (protease, 5 μL) is added for 1 hr prior to detection in a fluorescence microplate reader (Varioskan® Flash, ThermoFisher Scientific).
(§3) In all cases, the site-specific protease cleaves non-phosphorylated peptide only and eliminates the FRET signal. Phosphorylation levels of each reaction are calculated using the ratio of coumarin emission (donor) over fluorescein emission (acceptor), for which high ratios indicate high phosphorylation and low ratios indicate low phosphorylation levels. The percentage inhibition of each reaction is calculated relative to non-inhibited control and the 50% inhibitory concentration (IC50 value) is then calculated from the concentration-response curve.

The target in another experiment is p38 MAPKα (Homo sapiens (Human), UniProt Q16539). Briefly: p38 MAPKα enzyme inhibition (FRET, Z-LYTE; Method 2). It counts as biochemical. The method, then:
as §1
The inhibitory activities of test compounds against the p38 MAPKα isoform (MAPK14: Invitrogen), are evaluated indirectly by determining the level of activation/phosphorylation of the down-stream molecule, MAPKAP-K2. The p38 MAPKα protein (80 ng/mL, 2.5 μL) is mixed with the test compound (2.5 μL of either 4 μg/mL, 0.4 μg/mL, 0.04 μg/mL or 0.004 μg/mL) for 2 hr at RT. […] The mixture is incubated for 1 hr at RT. Development reagent (protease, 5 μL) is added for 1 hr prior to detection in a fluorescence microplate reader (Varioskan® Flash, ThermoFisher Scientific).
Method 2 This method follows the same steps as Method 1 above, but utilises a higher concentration of the p38 MAPKα protein (2.5 μL of 200 ng/mL protein instead of 2.5 μL of 80 ng/mL protein) for mixing with the test compound.
as §3

The next experiment concerns the target GSK3α (Homo sapiens (Human), UniProt P49840). The experiment in a line: GSK 3α enzyme inhibition (FRET, Z-LYTE; Method 2). Format: biochemical. A digest of the protocol:
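GSK3-α protein preincubated with compound for 105 min, then Z-LYTE FRET peptide and ATP added for 1 h before protease development for 1 h. Phosphorylation taken from coumarin/fluorescein emission ratio; percent inhibition against uninhibited control and IC50 calculated from concentration-response curves.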

For the next experiment, the target named is Syk (Homo sapiens (Human), UniProt P43405). The experiment in a line: Syk enzyme inhibition (FRET, Z-LYTE). It counts as biochemical. On the procedure:
as §1, §2, §3

The test system of experiment [2] is PBMCs. The experiment in a line: IL-2 and IFN gamma release in CD3/CD28 stimulated PBMC cells. It counts as cell-based. As to conditions: Homo sapiens. On the procedure:
PBMCs from healthy subjects are separated from whole blood using a density gradient (Lymphoprep, Axis-Shield Healthcare). Cells are added to a 96 well plate pre-coated with a mixture of CD3/[…] monoclonal antibodies (0.3 μg/mL eBioscience and 3 μg/mL BD Pharmingen respectively). Compound at the desired concentration is then added to the wells and the plate left for 3 days under normal tissue culture conditions. Supernatants are harvested and IL-2 and IFN gamma release determined by Sandwich ELISA (Duo-set, R&D System). The IC50 is determined from the dose response curve.

[3] abbreviates: IL-8, read-out: IC50 Values for Inhibition of Cytokine Release, PBMCs IL-8.
The mark [4] stands for this setting: TNFα, read-out: IC50 Values for Inhibition of Cytokine Release, PBMCs TNFα.
Where [5] appears, read: IL-8, read-out: IC50 Values for Inhibition of Cytokine Release, dU937 cells IL-8.
Where [6] appears, read: TNFα (REC50 relative to BIRB796 per method), read-out: IC50 Values for Inhibition of Cytokine Release, dU937 cells TNFα.
The mark [7] stands for this setting: IL-2, read-out: IC50 Values for Inhibition of Cytokine Release, PBMCs IL-2.

Structures are written as SMILES. Like-named read-outs stand apart in the source and are kept apart here.

Sequence of p38 MAPKα (Q16539 whole entry): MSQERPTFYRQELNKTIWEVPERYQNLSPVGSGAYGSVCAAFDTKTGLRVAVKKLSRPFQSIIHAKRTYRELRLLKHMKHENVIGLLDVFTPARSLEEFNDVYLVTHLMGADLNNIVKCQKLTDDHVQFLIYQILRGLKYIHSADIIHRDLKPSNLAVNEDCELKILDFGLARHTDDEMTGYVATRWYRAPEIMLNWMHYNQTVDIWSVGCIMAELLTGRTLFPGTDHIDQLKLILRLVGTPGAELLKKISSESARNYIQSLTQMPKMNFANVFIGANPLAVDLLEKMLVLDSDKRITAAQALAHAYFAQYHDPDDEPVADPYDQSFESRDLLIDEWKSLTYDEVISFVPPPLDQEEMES
Sequence of c-Src (P12931 whole entry, looked up): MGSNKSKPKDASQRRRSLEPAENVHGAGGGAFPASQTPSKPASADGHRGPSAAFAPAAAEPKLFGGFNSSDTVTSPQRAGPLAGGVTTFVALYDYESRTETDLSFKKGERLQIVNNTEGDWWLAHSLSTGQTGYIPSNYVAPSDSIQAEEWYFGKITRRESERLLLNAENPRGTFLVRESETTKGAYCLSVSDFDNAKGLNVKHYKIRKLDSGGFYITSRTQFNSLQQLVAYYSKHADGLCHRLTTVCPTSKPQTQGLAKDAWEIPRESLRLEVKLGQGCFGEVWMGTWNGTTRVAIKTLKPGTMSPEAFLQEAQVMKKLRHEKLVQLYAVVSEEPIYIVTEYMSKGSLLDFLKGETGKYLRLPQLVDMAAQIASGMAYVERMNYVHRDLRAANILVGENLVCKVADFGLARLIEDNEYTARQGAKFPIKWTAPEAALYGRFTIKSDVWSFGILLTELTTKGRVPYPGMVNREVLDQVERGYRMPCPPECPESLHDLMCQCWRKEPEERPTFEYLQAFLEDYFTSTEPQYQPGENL
Sequence of GSK3α (P49840 whole entry): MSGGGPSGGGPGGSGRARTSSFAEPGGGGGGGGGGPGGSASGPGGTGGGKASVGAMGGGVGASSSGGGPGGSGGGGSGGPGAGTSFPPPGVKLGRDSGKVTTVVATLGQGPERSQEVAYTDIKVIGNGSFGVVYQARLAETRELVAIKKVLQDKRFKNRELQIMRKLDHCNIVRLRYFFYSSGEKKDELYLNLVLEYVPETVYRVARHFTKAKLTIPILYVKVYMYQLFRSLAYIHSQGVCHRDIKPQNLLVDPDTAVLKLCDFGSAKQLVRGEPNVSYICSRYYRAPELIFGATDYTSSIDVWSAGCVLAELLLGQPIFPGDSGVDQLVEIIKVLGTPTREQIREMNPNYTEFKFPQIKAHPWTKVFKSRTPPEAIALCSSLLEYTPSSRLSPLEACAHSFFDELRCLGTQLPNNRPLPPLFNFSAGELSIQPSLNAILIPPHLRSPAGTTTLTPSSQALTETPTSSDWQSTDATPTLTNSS

Regarding `CC(C)(C)c1cc(NC(=O)Nc2ccc(Oc3ccnc(Nc4ccccc4)n3)c3ccccc23)n(-c2ccc(P(C)(C)=O)cc2)n1` [Example 1, 1-(3-(tert-Butyl)-1-(4-(dimethylphosphoryl)phenyl)-1H-pyrazol-5-yl)-3-(4-((2-(phenylamino)pyrimidin-4-yl)oxy)naphthalen-1-yl)urea], the half-inhibitory concentration (IC50) came to 0.0069 µM in the experiment with PBMCs [1] (setting [3]); 0.0013 µM in the experiment with PBMCs [1] (setting [4]); 0.0049 µM with d-U937 cells (setting [5]); 0.002 µM in the experiment with d-U937 cells (setting [6]); 0.015 µM against c-Src; 0.008 µM at p38 MAPKα. Further, the IC50 was found to be 1.28 µM on GSK3α and 0.034 µM against Syk.
In the case of `CC(C)(C)c1cc(NC(=O)Nc2ccc(Oc3ccnc(Nc4ccccc4)n3)c3ccccc23)n(-c2cccc(P(C)(C)=O)c2)n1` [Example 2, 1-(3-(tert-Butyl)-1-(3-(dimethylphosphoryl)phenyl)-1H-pyrazol-5-yl)-3-(4-((2-(phenylamino)pyrimidin-4-yl)oxy)naphthalen-1-yl)urea], the IC50 in the experiment on PBMCs [1] (setting [4]) stood at 0.0043 µM; in the experiment on d-U937 cells (setting [5]), 0.0094 µM; in the experiment with d-U937 cells (setting [6]) it was 0.0036 µM; against GSK3α it was 0.647 µM.
For `COCC(=O)Nc1cc(Oc2ccc(NC(=O)Nc3cc(C(C)(C)C)nn3-c3ccc(P(C)(C)=O)cc3)c3ccccc23)ccn1` [Example 3, N-(4-((4-(3-(3-(tert-Butyl)-1-(4-(dimethylphosphoryl)phenyl)-1H-pyrazol-5-yl)ureido)-naphthalen-1-yl)oxy)pyridin-2-yl)-2-methoxyacetamide], in that order: 0.0025 µM, 0.0086 µM, 0.0036 µM and 0.016 µM.
Take `CC(C)c1cc(NC(=O)Nc2ccc(Oc3ccnc(Nc4ccccc4)n3)c3ccccc23)n(-c2ccc(P(C)(C)=O)cc2)n1` [Example 4, 1-(1-(4-(Dimethylphosphoryl)phenyl)-3-isopropyl-1H-pyrazol-5-yl)-3-(4-((2-(phenylamino)-pyrimidin-4-yl)oxy)naphthalen-1-yl)urea]: the IC50 with PBMCs [1] (setting [3]) was found to be 0.0589 µM; with PBMCs [1] (setting [4]), 0.0208 µM; in the experiment on d-U937 cells (setting [6]), 0.0192 µM; at c-Src, 0.012 µM; against GSK3α, 0.22 µM.
In the case of `C[Si](C)(C)c1cc(NC(=O)Nc2ccc(Oc3ccnc(Nc4ccccc4)n3)c3ccccc23)n(-c2cccc(CP(C)(C)=O)c2)n1` [Example 35, 1-(1-(3-((Dimethylphosphoryl)methyl)phenyl)-3-(trimethylsilyl)-1H-pyrazol-5-yl)-3-(4-((2-(phenylamino)pyrimidin-4-yl)oxy)naphthalen-1-yl)urea], the values for the IC50 with PBMCs [1] (setting [3]), in the experiment with PBMCs [2] (setting [7]) and at GSK3α were 0.0076 µM, 0.0768 µM and 1.27 µM, respectively.
For `COc1cc(Nc2cc(Oc3ccc(NC(=O)Nc4cc(C(C)C)nn4-c4cccc(CP(C)(C)=O)c4)c4ccccc34)ccn2)cc(C(=O)NCCN2CCOCC2)c1` [Example 50, 3-((4-((4-(3-(1-(3-((Dimethylphosphoryl)methyl)phenyl)-3-isopropyl-1H-pyrazol-5-yl)-ureido)naphthalen-1-yl)oxy)pyridin-2-yl)amino)-5-methoxy-N-(2-morpholinoethyl)-benzamide], the half-maximal inhibitory concentration (IC50) was 0.001 µM in the experiment with PBMCs [1] (setting [3]), 0.024 µM at p38 MAPKα, 0.0161 µM with PBMCs [2] (setting [7]) and 2.09 µM at GSK3α.
`COc1cc(Nc2cc(Oc3ccc(NC(=O)Nc4cc(C(C)C)nn4-c4cccc(CP(C)(C)=O)c4)c4ccccc34)ccn2)cc(OCCN2CCOCC2)c1` [Example 51, 1-(1-(3-((Dimethylphosphoryl)methyl)phenyl)-3-isopropyl-1H-pyrazol-5-yl)-3-(4-((2-((3-methoxy-5-(2-morpholinoethoxy)phenyl)amino)pyridin-4-yl)oxy)naphthalen-1-yl)urea]: the IC50 in the experiment on PBMCs [1] (setting [3]) was 0.0005 µM; against c-Src, 0.008 µM; against p38 MAPKα it was 0.058 µM; in the experiment on PBMCs [2] (setting [7]) it was 0.0061 µM; against GSK3α, 2.81 µM.
Turning to `COCCOCCOCCOCCOc1cc(Nc2nccc(Oc3ccc(NC(=O)Nc4cc(C(C)C)nn4-c4cccc(CP(C)(C)=O)c4)c4ccccc34)n2)cc(OC)c1` [Example 52, 1-(4-((2-((3-(2,5,8,11-Tetraoxatridecan-13-yloxy)-5-methoxyphenyl)amino)pyrimidin-4-yl)oxy)naphthalen-1-yl)-3-(1-(3-((dimethylphosphoryl)methyl)phenyl)-3-isopropyl-1H-pyrazol-5-yl)urea], the IC50 with PBMCs [1] (setting [3]) was found to be 0.0033 µM; on c-Src, 0.003 µM; at p38 MAPKα, 0.018 µM; in the experiment with PBMCs [2] (setting [7]) it was 0.0116 µM; on GSK3α, 1.19 µM; against Syk, 0.004 µM.
Consider `CC(C)c1cc(NC(=O)Nc2ccc(Oc3ccnc(Nc4cc(C#N)cc(OCCN5CCOCC5)c4)n3)c3ccccc23)n(-c2cccc(CP(C)(C)=O)c2)n1` [Example 57, 1-(4-((2-((3-cyano-5-(2-morpholinoethoxy)phenyl)amino)pyrimidin-4-yl)oxy)-naphthalen-1-yl)-3-(1-(3-((dimethylphosphoryl)methyl)phenyl)-3-isopropyl-1H-pyrazol-5-yl)urea], for which the IC50 worked out at 0.0027 µM in the experiment with PBMCs [1] (setting [3]); 0.009 µM on c-Src; 0.021 µM against p38 MAPKα; 0.0105 µM with PBMCs [2] (setting [7]); 1.25 µM against GSK3α; 0.007 µM against Syk.
`CC(C)(C)c1cc(NC(=O)Nc2ccc(Oc3ccnc(Nc4cc(C(=O)NCCN5CCOCC5)cc(C(F)(F)F)c4)n3)c3ccccc23)n(-c2cccc(CP(C)(C)=O)c2)n1` [Example 58, 3-((4-((4-(3-(3-(tert-Butyl)-1-(3-((dimethylphosphoryl)methyl)phenyl)-1H-pyrazol-5-yl)-ureido)naphthalen-1-yl)oxy)pyrimidin-2-yl)amino)-N-(2-morpholinoethyl)-5-(trifluoromethyl)benzamide]: the concentration for half-maximal inhibition (IC50) came out at 0.0014 µM with PBMCs [1] (setting [3]); 0.007 µM against c-Src; 0.084 µM against p38 MAPKα; 0.0048 µM in the experiment with PBMCs [2] (IFNγ, read-out: IC50 Values for Inhibition of Cytokine Release, PBMCs IFNγ); 0.0621 µM in the experiment on PBMCs [2] (setting [7]); 0.689 µM against GSK3α. This compound displayed an IC50 against Syk of 0.012 µM.
